Measurements published in PMC11467779, “New anti-ovarian cancer quinolone derivatives acting by modulating microRNA processing machinery” (RSC Medicinal Chemistry, 2024).
Several values for one entry are separate records, joined by “and”; a condition that tells them apart may be missing. Equal entries are not always repeated.

Legend:
SKOV-3 cell line = experiment: Antiproliferative effect against the SKOV-3 cell line (GI50, cell count); type: cell-based, human; conditions: for GI50: 50% cell growth inhibition, 72 hours of treatment, cell count, ND = activity not dose dependent
Method: (§1) SKOV-3, A2780 and A2780 CIS were cultured and maintained, as previously described,[50] at 37 °C in RPMI 1640 medium (Euroclone) supplemented with 10% fetal bovine serum (FBS; Euroclone), L-glutamine and penicillin/streptomycin (SIGMA-ALDRICH). OVCA433, HEK-293T, HeLa, HCCLM3, SK-Hep-1, MCF-7, A549 and HCT-116 cells were maintained in DMEM medium (Euroclone) containing 10% FBS (Euroclone), L-glutamine and penicillin/streptomycin (SIGMA-ALDRICH). Wi-38 cells were cultured in DMEM medium (Euroclone) supplemented with 10% FBS (Euroclone), L-glutamine and penicillin/streptomycin (SIGMA-ALDRICH), and 1% non-essential amino acids (NEAA; Euroclone). The cultures were maintained in a constant temperature incubator at 37 °C with 5% CO2. […] Once cell adhesion had been promoted, the compounds were added to the culture medium. After 72 hours of treatment, the cells were counted, and the data analyzed by linear regression. Each experiment was carried out three times in triplicate and three separate cell counts were made for each sample. […] Afterwards, the concentration range was narrowed to the relative value obtained in the first evaluation in order to obtain an accurate value.

[1] = Cytotoxicity against non-tumor Wi-38 cells (CC50, cell count); type: cell-based; conditions: human, Wi-38 cells (non-tumor), 50% cytotoxicity concentration, 72 hours of treatment
Method: as §1

hTopI = biological target: T1, hTopI (Homo sapiens, UniProt P11387); experiment: Detection of hTOP1 cleavage complexes (cleavage assay); type: cell-based; conditions: 100 μM
T1 construct: endogenous in cells
T1 sequence (P11387 whole entry): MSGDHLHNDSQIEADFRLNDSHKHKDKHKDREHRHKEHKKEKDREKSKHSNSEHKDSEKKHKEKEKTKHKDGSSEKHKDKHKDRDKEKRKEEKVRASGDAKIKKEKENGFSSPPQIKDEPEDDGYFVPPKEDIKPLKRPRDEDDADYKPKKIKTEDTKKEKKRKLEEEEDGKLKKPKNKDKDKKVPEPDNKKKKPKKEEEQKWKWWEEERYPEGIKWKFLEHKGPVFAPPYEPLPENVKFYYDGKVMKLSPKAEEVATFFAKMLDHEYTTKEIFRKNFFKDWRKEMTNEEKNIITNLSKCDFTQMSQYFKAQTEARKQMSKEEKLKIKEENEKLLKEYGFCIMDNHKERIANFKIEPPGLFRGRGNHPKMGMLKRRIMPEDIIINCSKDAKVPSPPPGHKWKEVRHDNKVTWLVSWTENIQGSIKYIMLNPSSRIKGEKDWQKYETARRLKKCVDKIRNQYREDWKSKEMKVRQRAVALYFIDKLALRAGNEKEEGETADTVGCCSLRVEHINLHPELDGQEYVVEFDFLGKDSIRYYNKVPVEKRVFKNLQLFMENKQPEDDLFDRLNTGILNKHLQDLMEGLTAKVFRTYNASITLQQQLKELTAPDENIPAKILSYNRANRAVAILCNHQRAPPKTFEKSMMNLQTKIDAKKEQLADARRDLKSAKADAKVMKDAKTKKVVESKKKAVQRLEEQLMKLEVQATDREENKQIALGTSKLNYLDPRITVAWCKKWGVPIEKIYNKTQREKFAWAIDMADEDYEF
Method: (§2) After compound treatments, 1 × 10^6 human cells in 35 mm dish per sample were washed with 1× phosphate-buffered saline (PBS) and lysed with 600 μL of DNAzol (Invitrogen), followed by precipitation with 300 μL of 200 proof ethanol. The nucleic acids were collected, washed with 75% ethanol, resuspended in 200 μL of TE buffer, and then heated at 65 °C for 15 min, followed by shearing with sonication (40% output for 10 s pulse and 10 s rest for four times). The samples were centrifuged at 15 000 rpm for 5 min at 4 °C, and the supernatant were collected. 1 μL of each sample was removed for spectrophotometric measurement of absorbance at 260 nm to quantitate DNA content (NanoDrop). 2 μg of each sample was subjected to slot-blot for immunoblotting using anti-hTOP1 antibody (BD Pharmingen, 556597) and anti-hTOP2α antibody (Santa Cruz biotechnology, 365916).[51]

hTopII = biological target: T2, hTopII (Homo sapiens, UniProt P11388); experiment: Detection of hTOP2α cleavage complexes (cleavage assay); type: cell-based; conditions: 100 μM
T2 construct: endogenous in cells
T2 sequence (P11388 whole entry): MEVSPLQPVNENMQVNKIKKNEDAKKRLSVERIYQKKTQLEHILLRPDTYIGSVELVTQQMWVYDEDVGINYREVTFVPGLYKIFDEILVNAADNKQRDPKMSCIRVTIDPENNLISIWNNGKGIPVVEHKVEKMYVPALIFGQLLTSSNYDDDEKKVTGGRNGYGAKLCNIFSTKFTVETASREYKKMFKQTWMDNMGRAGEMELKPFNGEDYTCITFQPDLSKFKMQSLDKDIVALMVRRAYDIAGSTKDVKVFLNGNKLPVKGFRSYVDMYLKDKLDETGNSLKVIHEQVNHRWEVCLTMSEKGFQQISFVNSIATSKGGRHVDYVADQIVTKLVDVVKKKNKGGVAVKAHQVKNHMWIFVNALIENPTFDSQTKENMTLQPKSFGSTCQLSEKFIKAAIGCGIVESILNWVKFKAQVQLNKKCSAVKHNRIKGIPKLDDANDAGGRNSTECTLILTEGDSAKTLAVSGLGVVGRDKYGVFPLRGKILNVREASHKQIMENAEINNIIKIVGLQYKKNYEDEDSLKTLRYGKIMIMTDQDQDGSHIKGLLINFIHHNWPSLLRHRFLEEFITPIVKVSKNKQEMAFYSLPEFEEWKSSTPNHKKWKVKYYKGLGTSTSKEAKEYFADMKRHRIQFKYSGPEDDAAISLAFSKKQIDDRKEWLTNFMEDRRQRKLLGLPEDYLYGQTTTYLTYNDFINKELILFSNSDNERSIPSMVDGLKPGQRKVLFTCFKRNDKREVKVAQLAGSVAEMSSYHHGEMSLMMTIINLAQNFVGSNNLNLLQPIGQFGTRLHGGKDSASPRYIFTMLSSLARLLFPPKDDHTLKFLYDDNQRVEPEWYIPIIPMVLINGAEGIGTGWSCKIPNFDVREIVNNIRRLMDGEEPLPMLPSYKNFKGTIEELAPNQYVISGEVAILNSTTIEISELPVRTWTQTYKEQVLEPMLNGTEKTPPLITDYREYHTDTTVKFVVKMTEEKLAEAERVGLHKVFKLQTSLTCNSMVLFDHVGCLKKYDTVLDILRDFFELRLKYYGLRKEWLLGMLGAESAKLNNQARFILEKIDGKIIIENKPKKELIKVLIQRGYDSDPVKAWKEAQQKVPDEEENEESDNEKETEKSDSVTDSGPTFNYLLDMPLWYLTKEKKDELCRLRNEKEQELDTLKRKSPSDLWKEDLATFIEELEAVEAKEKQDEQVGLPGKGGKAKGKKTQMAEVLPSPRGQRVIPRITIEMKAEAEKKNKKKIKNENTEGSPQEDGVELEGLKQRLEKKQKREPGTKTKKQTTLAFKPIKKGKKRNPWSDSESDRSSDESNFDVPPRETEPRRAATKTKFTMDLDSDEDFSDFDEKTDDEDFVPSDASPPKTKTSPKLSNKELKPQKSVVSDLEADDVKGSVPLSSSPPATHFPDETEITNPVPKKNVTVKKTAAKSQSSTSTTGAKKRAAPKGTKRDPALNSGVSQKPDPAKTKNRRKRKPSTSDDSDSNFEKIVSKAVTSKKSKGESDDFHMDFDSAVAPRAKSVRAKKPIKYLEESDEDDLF
Method: as §2

[2] = tested on: several cancer cell lines; set-up: method as in PMID 21368194; conditions: wide panel of cancer cells; read-out: GI50 against several cancer cell lines; cited from earlier work
A2780 = experiment: Antiproliferative effect against A2780 (GI50); type: cell-based; conditions: Homo sapiens, 72 hours of treatment, cell count
Method: as §1

OVCA433 = experiment: Antiproliferative effect against OVCA433 (GI50); type: cell-based; conditions: Homo sapiens, 72 hours of treatment, cell count
Method: as §1

[3] = tested on: shRNA to siRNA maturation (GAPDH mRNA); experiment: RNAi enhancing activity (shRNA to siRNA maturation, GAPDH mRNA in HEK-293T_shGAPDH); type: cell-based, human; conditions: 50 μM, 48 hours
Method: HEK-293T_shSCR and HEK-293T_shGAPDH were treated with 50 μM of enoxacin and 33 for 48 hours before RNA extraction and expression analysis.
Lentiviral particles were produced by calcium phosphate transient transfection of HEK-293T cells with specific lentiviral plasmids (shGAPDH: TRCN0000445616 and shSCR: TRCN0000015937 from SIGMA-ALDRICH) together with the packaging plasmids (pLP1and pLP2) and the envelope plasmid pLP/VSVG. For each lentiviral plasmid one 150 mm plate of HEK293T cells was used for transfection. After 14–16 hours the medium was replaced with complete medium supplemented with 1 mM sodium butyrate (SIGMA-ALDRICH). The collection of medium containing lentiviral particles occurs 48 h and 72 h after transfection; complete medium supplemented with sodium butyrate was added after the first collection. […]
Total RNA was extracted using the Direct-zol RNA MiniPrep kit (Zymo Research) with on-column DNase treatment, according to the manufacturer's instructions. Reverse transcription was carried out with SuperScript VILO cDNA Synthesis Kit (Life Technologies) and the cDNA samples were analyzed by qRT-PCR using PowerUp SYBR Green Master Mix (Thermo Fisher Scientific). For miR-21 expression analysis total RNA was retrotranscribed using miRCURY® LNA® RT Kit (Qiagen) and the cDNA was analyzed by using miRCURY® LNA® miRNA PCR Assay (Qiagen). […]

miR-21-5p biogenesis = experiment: miR-21-5p luciferase reporter (psi-R21 / psi-CTRL) in HeLa cells; type: cell-based, human; conditions: 50 μM, 6 hours
Method: HeLa cells were transfected with 10 ng of psi-R21 or psi-CTRL using Lipofectamine™ 2000 (Thermo Fisher Scientific) and after 48 hours were treated with either enoxacin or 33 at 20 μM and 50 μM. After 6 hours Renilla luciferase (RLuc) and firefly luciferase (FLuc) activities were measured using the Dual-Luciferase® Reporter Assay System (Promega), following the manufacturer's instructions, and GloMax® Discover Microplate Reader (Promega).
The binding site for miR-21 was cloned into psiCHECK™-2 Vector (Promega), downstream the Renilla cDNA, by inverted PCR using the following oligonucleotides: 21MRE_FW […]; 21MRE_REV […]. The resulting construct was named psi-R21.

miR-21 = miR-21 expression in HeLa cells (qRT-PCR); type: cell-based, human; conditions: 50 μM, 6 hours
Method: Total RNA was extracted using the Direct-zol RNA MiniPrep kit (Zymo Research) with on-column DNase treatment, according to the manufacturer's instructions. Reverse transcription was carried out with SuperScript VILO cDNA Synthesis Kit (Life Technologies) and the cDNA samples were analyzed by qRT-PCR using PowerUp SYBR Green Master Mix (Thermo Fisher Scientific). For miR-21 expression analysis total RNA was retrotranscribed using miRCURY® LNA® RT Kit (Qiagen) and the cDNA was analyzed by using miRCURY® LNA® miRNA PCR Assay (Qiagen). The oligonucleotides used are the following: GAPDH_FW […]; GAPDH_REV […]; ATP5O_FW […]; ATP5O_REV […]; hsa-miR-21-5p miRCURY LNA miRNA PCR Assay (YP00204230); U6 snRNA (v2) miRCURY LNA miRNA PCR Assay (YP02119464).

GI50 (SKOV-3 cell line) [µM] | GI50 (SKOV-3 cell line; Homo sapiens, SK-OV-3, 72 h) [µM] | GI50 SKOV-3, fold lower than enoxacin (SKOV-3 cell line; versus enoxacin) | trapping/inhibition of hTopI (cleavage assay) (hTopI) | trapping/inhibition of hTopII (cleavage assay) (hTopII) | GI50 (A2780) [µM] | SMILES | CC50 at 72 h [1] [µM] | GI50 [2] | GI50 (OVCA433) [µM] | RNAi enhancing effect (GAPDH mRNA decrease) [3] | miRNA enhancing effect: Renilla luciferase activity, psi-R21 construct (miR-21-5p biogenesis) | miR-21 level in HeLa cells (miR-21)
37.7 ± 3.38 | 38 | about 3 fold | did not trap human topoisomerases | did not trap human topoisomerases | – | Cc1c(N2CCc3ccccc3C2)c(N)cc2c(=O)c(C(=O)O)cn(C3CC3)c12 [Compound 5] | 38.5 ± 29 | – | – | – | – | –
– | 125 | – | – | – | 142 ± 8.73 | CCn1cc(C(=O)O)c(=O)c2cc(F)c(N3CCNCC3)nc21 [Enoxacin, enoxacin, reference compound] | 216 ± 123 | ~125 µM and 125 µM | 118 ± 8.89 | comparable | miRNA enhancing effect | Upregulation of miR-21
